Where a SMILES comes first, the peptide text is derived from it.
Experiments:
[1] = tested on: human red blood cells (hRBCs); test: Hemolysis, hemoglobin release assay; format: cell-based
Procedure: Figure 3 Biological activity of the peptides towards human cells. (A) Hemolytic effect on human red blood cells (hRBCs) after 2 h incubation (the hemoglobin release assay). (B) Cytotoxicity towards transformed human embryonic kidney cells (HEK293T) after 16 h incubation (the resazurin assay).
The hemolytic activity of the peptides was tested against the fresh suspension of human red blood cells (hRBC) using the hemoglobin release assay, as described previously. Two experiments were performed with hRBC from blood samples of independent donors. The quantitative data are represented as average means with standard deviations. The cytotoxic effect of the peptides was tested on transformed human embryonic kidney cells (HEK293T) using the resazurin assay. The technique is based on the ability of live cell dehydrogenases to reduce a blue resazurin to pink and fluorescent resorufin. A total of 10^4 cells per well in Dulbecco’s modified Eagle’s medium (DMEM/F12) supplemented with 10% FBS were placed into 96-well plates for 24 h in the CO2-incubator (5% CO2, 37 °C). […] Fluorescence of the formed resorufin was measured with the microplate reader AF2200 (Eppendorf, Germany) using the following channel: λExc = 535 nm, λEm = 595 nm. The fluorescence signal in the wells containing cells cultured without the peptides was assumed to represent 100% cell viability. […]

[2] = RP-HPLC retention time; format: physicochemical; conditions: semi-preparative RP-HPLC, C18 column, linear gradient 5 to 80% (v/v) acetonitrile in water with 0.1% TFA within 50 min
Procedure: Figure 2 Structure analysis of the novel BRICHOS-related peptides HfBRI-25 and HfBRI-28. (A) Characteristics of the obtained peptides. ^1 Mean Kyte–Doolittle hydrophobicity index (GRAVY) was calculated using the Expasy ProtParam tool. The maximum and minimum values of this index are +4.5 and −4.5 for poly-Ile and poly-Arg sequences, respectively. ^2 Percentage of hydrophobic amino acids was calculated using the APD3 database. ^3 Retention times were measured using semi-preparative reversed-phase high-performance liquid chromatography (RP-HPLC) on a C18 column with a linear gradient from 5 to 80% (v/v) acetonitrile in water containing 0.1% trifluoroacetic acid (TFA) within 50 min. ^4 Molecular masses were calculated by considering the presence of four Cys residues forming two disulfide bonds in the case of HfBRI-25. ^5 Molecular masses were determined experimentally using MALDI-TOF mass spectrometry. (B) Spatial structures of HfBRI-25 and HfBRI-28 were modeled using the AlphaFold algorithm (ColabFold server). The top-rated models, according to predicted local distance difference test (pLDDT) scores, were visualized by the PyMOL software. (C) The CD-spectra of the peptides in water or in the presence of 30 mM DPC micelles. (D) The CONTINLL program was used for CD data analysis. […]

[3] = tested on: E. coli ML-35p cytoplasmic membrane; test: Cytoplasmic membrane permeabilization, ONPG hydrolysis; format: cell-based, Escherichia coli; conditions: at concentrations ≥ MIC values, PBS, 37 °C, ONPG 2.5 mM, OD405
Procedure: Cationic AMPs perform their antibacterial function by damaging membrane integrity and/or specifically inhibiting intracellular processes. In this study, an effect of the obtained peptides on bacterial cytoplasmic membrane integrity was analyzed with the use of E. coli ML-35p, the strain constitutively expressing β-galactosidase and lacking the functional lactose permease which is necessary for the uptake of o-nitrophenyl-β-D-galactoside (ONPG). When β-galactosidase cleaves ONPG, β-D-galactose and o-nitrophenol are released. The latter is a chromogenic product with absorbance at 405 nm. […] Thus, the rapid membranolytic mode of action seems to be predominant for the HfBRI-28 peptide.
Figure 4 Kinetics of changes in the E. coli ML35p cytoplasmic membrane permeability measured with the use of ONPG (OD405) hydrolysis caused by the examined peptides. Peptide concentrations (μM) are presented within the dashed box. […]
To examine the ability of the peptides to affect the barrier function of inner membrane of Gram-negative bacteria, we used the E. coli ML-35p strain constitutively expressing cytoplasmic β-galactosidase but lacking lactose permease. The state of the E. coli ML-35p cytoplasmic membrane was assessed based on its permeability to chromogenic marker o-nitrophenyl-β-D-galactopyranoside (ONPG, AppliChem), which is the β-galactosidase substrate. […]

[4] = tested on: Escherichia coli ML-35p; conditions: salt-containing MHB supplemented with 5% FBS, compared with no FBS
Text: (§1) The results were expressed as the median values determined on the basis of at least three independent experiments performed in triplicate.

[5] = tested on: E. coli strains with the MCR-1-mediated colistin resistance; test: MIC against strains with MCR-1-mediated colistin resistance; format: cell-based, Escherichia coli; conditions: two strains with MCR-1-mediated colistin resistance; medium not stated
Text: as §1

[6] = tested on: E. coli MDR CI 1057; conditions: Mueller–Hinton broth supplemented with 0.9% NaCl, 37 °C
Procedure: Resistance induction experiments were performed using the previously described method. Briefly, on day one, the overnight culture of wild-type bacteria was diluted with the 2× MH broth supplemented with 1.8% NaCl to reach a final cell concentration of 10^6 CFU/mL.

Compound	Hemolytic effect on human red blood cells [1]	RP-HPLC Retention Time [2] [min]	Membrane damage [3]	Increase in MIC in the presence of serum [4]	MIC against MCR-1 colistin-resistant strains [5] [µM]	Initial MIC value before resistance selection [6] [µM]
CC[C@H](C)[C@H](NC(=O)CNC(=O)[C@H](CCCCN)NC(=O)[C@H](Cc1c[nH]c2ccccc12)NC(=O)[C@@H](NC(=O)[C@H](CO)NC(=O)[C@H](CCCCN)NC(=O)[C@H](CC(C)C)NC(=O)[C@H](Cc1c[nH]c2ccccc12)NC(=O)CN)[C@@H](C)CC)C(=O)N[C@@H](CCCCN)C(=O)N[C@@H](CCCCN)C(=O)N[C@@H](C)C(=O)N[C@H](C(=O)N[C@@H](CCCCN)C(=O)N[C@@H](Cc1c[nH]c2ccccc12)C(=O)N[C@H](C(=O)N[C@@H](CC(C)C)C(=O)N[C@@H](CCCNC(=N)N)C(=O)N[C@@H](Cc1c[nH]cn1)C(=O)NCC(=O)N[C@H](C(=O)N[C@@H](Cc1ccc(O)cc1)C(=O)N[C@H](C(=O)N[C@@H](CCCNC(=N)N)C(=O)N[C@H](C(=O)N[C@H](C(=O)N[C@@H](Cc1ccccc1)C(=O)O)[C@@H](C)O)[C@@H](C)CC)C(C)C)C(C)C)C(C)C)C(C)C [HfBRI-28] (H-GWLKSIWKGIKKAVKWVLRHGVYVRITF-OH)	strong hemolytic effect	40.5	effectively damaged membranes	four- to eight-fold	–	–
polymyxin B [reference compound]	–	–	–	–	2	0.125

From article PMC10745061 (Marine Drugs, 2023)
